We go through three compounds from paper PMC9348534 (Advanced Pharmaceutical Bulletin, 2021).

Each structure is given as a SMILES string. Values after ≈ are worked out from the molar mass of the structure shown. Read-outs that look alike come from different tables or passages of the source. Bounds are passed on as bounds.

For data set [1], the system named is several cancer cell lines. The data set can be described thus: Cytotoxic assay on several cancer cell lines (summary statement). It counts as cell-based. The following applies: several cancer cell lines (Table 3). The source says:
(§1) MCF-7/HER2 and MCF-7/EV are HER2 and empty vector-transfected MCF-7 cells obtained from Prof. Yoshio Inouye (Department of Surgery, Toho University School of Medicine, Japan) through Prof. Masashi Kawaichi (Laboratory of Gene Function in Animals, NAIST, Japan). The cells of 4T1, NIH-3T3, and T47D were kindly provided by Prof. Masashi Kawaichi (Laboratory of Gene Function in Animals, NAIST, Japan). K652 cells are the collection from the Laboratory of Tumor Cell Biology, Nara Institute of Science and Technology, Japan. HCC1954 and Caco2 cell lines were given by Dr. dr. Muhammad Hasan Bashari (Faculty of Medicine, Universitas Padjajaran, Indonesia). WiDr cell line was obtained from the Faculty of Medicine, Public Health, and Nursing Universitas Gadjah Mada, Indonesia. […]
(§2) Cells were grown in 24 or 96-well microplate and then cultured for 24 h. […] After treatment, viable cells were enumerated using the trypan blue exclusion or quantified under MTT assay. […]
(§3) Molecular docking results were validated by determining the RMSD value of conformation bearing the lowest docking score representing the ∆G (kkal/mol). […] Cytotoxic potencies against several cell lines were statistically analyzed based on the IC50 values through linear regression with a P value of […].

The test system of data set [2] is MCF-7 cells. Also on record: method as in PMID 31548601. The settings on record: read-out: IC 50 value; cited from earlier work.
For data set [3], the system named is K562 cells. Also on record: method as in PMID 31619723. The settings on record: read-out: IC 50 value; cited from earlier work.
The subject of data set [4] is 4T1 cells. The settings on record: read-out: IC 50 value; cited from earlier work.
In a further data set the test system is T47D cells. The experiment in a line: Cell viability assay (trypan blue exclusion or MTT). In kind it is cell-based. The settings on record: Homo sapiens, 24 hours treatment, read-out: IC 50 value. The source says:
(§4) MCF-7/HER2 and MCF-7/EV are HER2 and empty vector-transfected MCF-7 cells obtained from Prof. Yoshio Inouye (Department of Surgery, Toho University School of Medicine, Japan) through Prof. Masashi Kawaichi (Laboratory of Gene Function in Animals, NAIST, Japan). The cells of 4T1, NIH-3T3, and T47D were kindly provided by Prof. Masashi Kawaichi (Laboratory of Gene Function in Animals, NAIST, Japan). K652 cells are the collection from the Laboratory of Tumor Cell Biology, Nara Institute of Science and Technology, Japan. HCC1954 and Caco2 cell lines were given by Dr. dr. Muhammad Hasan Bashari (Faculty of Medicine, Universitas Padjajaran, Indonesia). WiDr cell line was obtained from the Faculty of Medicine, Public Health, and Nursing Universitas Gadjah Mada, Indonesia. Briefly, MCF-7/HER2, MCF-7, NIH-3T3, T47D, MCF-7/EV, and 4T1 cells were cultured in Dulbecco’s Modified Eagles Medium (DMEM) high glucose (Gibco, USA), whereas HCC1954, Caco2, WiDr, K562 cells were grown in Rosewell Park Memorial Institute (RPMI) Medium. Both were supplemented with 10% (v/v) fetal bovine serum (Gibco, USA), HEPES (Sigma, USA), sodium bicarbonate (Sigma, USA), 150 IU/mL penicillin and 150 µg/mL streptomycin (Gibco) and 1.25 µg/mL amphotericin B (Gibco, USA). The cells were maintained at 37 °C with 5% CO2 in a humidified atmosphere.
(§5) Cells were grown in 24 or 96-well microplate and then cultured for 24 h. Subsequently, cells were treated with PGV-1 or CCA-1.1 at concentration series up to 10 µM, except for NIH-3T3 up to 100 µM and incubated for 24 hours. Untreated cells were used as control. After treatment, viable cells were enumerated using the trypan blue exclusion or quantified under MTT assay. The viable cells were represented as % cell viability vs. concentration of the sample, and the IC50 value or the concentration that inhibits 50% of cell growth was calculated.
(§6) Molecular docking results were validated by determining the RMSD value of conformation bearing the lowest docking score representing the ∆G (kkal/mol). The validity of the molecular docking method was represented as RMSD value < 2. Cytotoxic potencies against several cell lines were statistically analyzed based on the IC50 values through linear regression with a P value of […].

The test system of another data set is NIH-3T3 cells. The data set is described as above. In kind it is cell-based. The settings on record: Mus musculus, NIH3T3; NIH-3T3 (non-cancerous), concentrations up to 100 µM, 24 hours; read-out: IC 50 value.
From the text: as §4, §5, §6

In a further data set the test system is HCC1954 cells. Described as above. In kind it is cell-based. The following applies: Homo sapiens; HCC1954, 24 hours treatment; read-out: IC 50 value.
From the text: as §4, §5, §6

The next data set has as its system WiDr cells. Described as above. In kind it is cell-based. The settings on record: Homo sapiens, 24 hours treatment, read-out: IC 50 value.
From the text: as §4, §5, §6

In the next data set the test system is MCF-7/EV cells. The description is as above. The settings on record: Homo sapiens, MCF7, 24 hours treatment, read-out: IC 50 value. In kind it is cell-based.
From the text: as §4, §5, §6

The test system of another data set is MCF-7/HER2 cells. The description is as above. It counts as cell-based. The settings on record: Homo sapiens, MCF7; MCF-7/HER2, 24 hours treatment; read-out: IC 50 value.
From the text: as §4, §5, §6

A further data set has as its system Caco2 cells. The description is as above. In kind it is cell-based. The following applies: Homo sapiens, Caco-2; Caco2, 24 hours treatment; read-out: IC 50 value.
From the text: as §4, §5, §6

A short description of data set [5]: Dissolution and stability test in buffer solution. The settings on record: for Appearance of solution after storage for 48 hours: 100 µM, room temperature; for Absorbance change (stability) up to 3 hours: aqueous solution, light exposure, ambient temperature, especially pH 1.0. It counts as physicochemical. On the procedure: Each solution in the respected buffer was then evaluated for its stability at ambient temperature and light exposure. It measured the absorbance change at 428, 416, and 404 nm, subsequently over a time-course using a UV-1800 spectrophotometer (Shimadzu, Japan).

The test system of data set [6] is K562 cells. The experiment in a line: Cell viability assay (trypan blue exclusion or MTT). In kind it is cell-based, human.
From the text: as §1, §2, §3

Data set [7] concerns MCF-7 cells. The data set is described as above. In kind it is cell-based. The settings on record: Homo sapiens, MCF7; MCF-7, 24 hours treatment; read-out: IC 50 value.
From the text: as §4, §5, §6

In data set [8] the test system is 4T1 cells. Described as above. In kind it is cell-based. The settings on record: Mus musculus; 4T1, 24 hours treatment; read-out: IC 50 value.
From the text: as §4, §5, §6

For data set [9] the following is noted: aqueous; cited from earlier work.

Take `Cc1cc(C=C2CCC(=Cc3cc(C)c(O)c(C)c3)C2=O)cc(C)c1O` [PGV-1, 2,5-bis(4-hydroxy-3,5-dimethylbenzylidene)cyclopentanone]: the IC50 in [1] was under 10 µM; in the data set on MCF-7 cells [2], 6 µM; with K562 cells [3], 0.45 µM; with 4T1 cells [4] it was 4 µM; in the data set with T47D cells, 8 µM; in the data set on NIH-3T3 cells it was over 50 µM. Moreover, the IC50 in the data set on HCC1954 cells is 3 µM; in the data set with WiDr cells, over 10 µM; in the data set on MCF-7/EV cells, 8 µM; in the data set on MCF-7/HER2 cells, 7 µM; in the data set with Caco2 cells, 12 µM. In addition, the “Appearance of solution at 50 µM” value in [5] (50 µM (data not shown)) is “appeared clear”. In data set [5], the “Appearance of solution after storage for 48 hours” value is given as “appeared with some sediment or crystal”. Besides, in data set [5], the “Absorbance change (stability) up to 3 hours” value (“Absorbance change” below) is listed as “tended to decrease the absorbance at 3 hours”.

On to `Cc1cc(C=C2CCC(=Cc3cc(C)c(O)c(C)c3)C2O)cc(C)c1O` (centres unmarked) [CCA-1.1, 2,5-bis(4-hydroxy-3,5-dimethylbenzylidene)cyclopentanol], for which the IC50 in the data set with K562 cells [6] (Homo sapiens, K562, 24 hours treatment, read-out: IC 50 value) was 0.293 µM; in data set [1], under 10 µM; in the data set on T47D cells, 7 µM; in the data set on NIH-3T3 cells, over 50 µM; in the data set on HCC1954 cells it was 6 µM; in the data set on MCF-7 cells [7], under 10 µM. Further, the IC50 in the data set on WiDr cells stood at 5 µM; in the data set on 4T1 cells [8] it was 3 µM; in the data set with MCF-7/EV cells, 8 µM; in the data set with MCF-7/HER2 cells it was 5 µM; in the data set on Caco2 cells, 5 µM. Further, the “Cytotoxic potency relative to PGV-1” value in the data set on K562 cells [6] (K562) was “twice stronger than PGV-1”. For the same compound, the “Appearance of solution after storage for 48 hours” value in data set [5] is given as “still looked clear”. Moreover, in data set [5], the “Absorbance change” value was “unchanged absorbance up to 3 hours”. Further, in data set [5] (distilled water, buffer pH 1.0 and pH 7.4, 100 µM), the “Solubility compared at a concentration of 100 µM” value is “more soluble than PGV-1 and curcumin”. For the same compound, the “Solubility relative to PGV-1” value in data set [5] (pH 1.0, 7.4, distilled water, observations up to 48 hours) is reported as “two times more soluble than PGV-1”.

As usually defined, the Solubility is the dissolved amount per volume that the medium holds. On to `COc1cc(C=CC(=O)CC(=O)C=Cc2ccc(O)c(OC)c2)ccc1O` [curcumin, 1,7-bis(4-hydroxy-3-methoxyphenyl)-1,6-heptadiene-3,5-dione], for which, in data set [9], the Solubility is reported as 40 µM (≈ 14.7 µg/mL). Further, in [5], the “Absorbance change” value is on record as “tended to decrease the absorbance at 3 hours”.
